Measurements as given in ChEMBL document CHEMBL1681638, “Synthesis of GN8 derivatives and evaluation of their antiprion activity in TSE-infected cells” (Bioorg Med Chem Lett, 2011).
Activity calls are given as the source filed them. No cut-off for these calls is given here.

What was measured:
[1] = system: GT1-7; test: Antiprion activity in human transmissible spongiform encephalopathies agent Fukuoka-1 prion infected GT1-7 cells assessed as proteinase K-resistant proteins at 10 uM after 3 days Western blotting analysis relative to control; format: cell-based
[2] = Antiprion activity in human transmissible spongiform encephalopathies agent Fukuoka-1 prion infected GT1-7 cells assessed as proteinase K-resistant proteins after 3 days Western blotting analysis; format: cell-based; details: GT1-7, 72 h
[3] = species: Mus musculus; test: Effect on PrPc expression level in mouse GT1-7 at 10 uM after 3 days by Western blot method
[4] = species: Mus musculus; test: Binding affinity to mouse PrPC by surface plasmon resonance
[5] = species: Mus musculus; test: Effect on PrPc expression level in mouse GT1-7 at 2 uM after 3 days by Western blot method
[6] = Cytotoxicity against mouse GT1-7 cells at 2 uM; format: cell-based; details: gt1-7, 2 µM

Row | Structure (SMILES) | Activity [1] | also measured
1 | CCCN(CCC)CC(=O)Nc1ccc(Cc2ccc(NC(=O)CN(CCC)CCC)cc2)cc1 | 48% | –
2 | CC(c1ccccc1)(c1ccc(NC(=O)CN2CCCC2)cc1)c1ccc(NC(=O)CN2CCCC2)cc1 | – | IC50 [2]: 660 nM
3 | CC(C)(C(=O)Nc1ccc(Cc2ccc(NC(=O)C(C)(C)N3CCCC3)cc2)cc1)N1CCCC1 | 45% | –
4 | CC(=O)Nc1ccc(Cc2ccc(NC(=O)CN3CCCC3)cc2)cc1 | 91% | –
5 | O=C(CN(C1CCCCC1)C1CCCCC1)Nc1ccc(Cc2ccc(NC(=O)CN(C3CCCCC3)C3CCCCC3)cc2)cc1 | 106% | –
6 | O=C(CN1CCCC1)Nc1ccc(Cc2ccc(NC(=O)CN3CCCC3)c(Cl)c2)cc1Cl | 38% | –
7 | O=C(CN1C(=O)CCC1=O)Nc1ccc(Cc2ccc(NC(=O)CN3C(=O)CCC3=O)cc2)cc1 | 90% | –
8 | CC(C)(c1ccc(NC(=O)CN2CCCC2)cc1)c1ccc(C(C)(C)c2ccc(NC(=O)CN3CCCC3)cc2)cc1 | – | IC50 [2]: 690 nM
9 | O=C(CN1CCCC1)Nc1ccc(C(O)c2ccc(NC(=O)CN3CCCC3)cc2)cc1 | 62% | –
10 | O=C(CN1CCCC1)Nc1ccc(Oc2ccc(NC(=O)CN3CCCC3)cc2)cc1 | 35% | –
11 | O=C(CN1CC[C@@H](O)C1)Nc1ccc(Cc2ccc(NC(=O)CN3CC[C@@H](O)C3)cc2)cc1 | 108% | –
12 | O=C(CN1CCCC1)Nc1cccc(Cc2cccc(NC(=O)CN3CCCC3)c2)c1 | 20% | Activity [3]: inactive
13 | O=C(CN1CCCCC1)Nc1ccc(Cc2ccc(NC(=O)CN3CCCCC3)cc2)cc1 | 24% | Activity [3]: inactive
14 | Nc1ccc(/N=N/c2ccccc2)c(N)c1 | inactive | –
15 | O=C(CN1CCCC1)Nc1ccc(Cc2ccc(NC(=O)CN3CCOCC3)cc2)cc1 | 77% | –
16 | CN(C)[C@H]1CCN(CC(=O)Nc2ccc(Cc3ccc(NC(=O)CN4CC[C@H](N(C)C)C4)cc3)cc2)C1 | 34% | Activity [3]: inactive
17 | O=C(Nc1ccc(Cc2ccc(NC(=O)c3ccccn3)cc2)cc1)c1ccccn1 | 122% | –
18 | O=C(CN1CCC[C@H]1CO)Nc1ccc(Cc2ccc(NC(=O)CN3CCC[C@H]3CO)cc2)cc1 | 91% | –
19 | O=C(CN1CCCC1)Nc1ccc(Cc2ccc(NC(=O)CN3CCCC3)cc2)cc1 | 25% | IC50 [2]: 1400 nM; RU [4]: 15
20 | c1cc(NCCN2CCCC2)ccc1Cc1ccc(NCCN2CCCC2)cc1 | 28% | –
21 | CN(C(=O)CN1CCCC1)c1ccc(Cc2ccc(N(C)C(=O)CN3CCCC3)cc2)cc1 | 77% | –
22 | O=C(CN1CCCCCC1)Nc1ccc(Cc2ccc(NC(=O)CN3CCCCCC3)cc2)cc1 | 29% | Activity [3]: inactive
23 | O=C(CN1CCCC1)Nc1ccc(S(=O)(=O)c2ccc(NC(=O)CN3CCCC3)cc2)cc1 | 17% | Activity [3]: inactive
24 | O=C(CN1CCCC1)NCCc1ccc(NC(=O)CN2CCCC2)cc1 | 86% | –

Row | Structure (SMILES) | Activity [1] | also measured
25 | O=C(CN1CCCCC1)Nc1ccc(Cc2ccc(NC(=O)CN3CCCC3)cc2)cc1 | 29% | Activity [3]: inactive
26 | NCC(=O)Nc1ccc(Cc2ccc(NC(=O)CN3CCCC3)cc2)cc1 | 62% | –
27 | CC(=O)Nc1ccc(Cc2ccc(NC(C)=O)cc2)cc1 | 84% | –
28 | O=C(CN1CCCC1)Nc1ccc(Cc2ccc(NC(=O)CN3CCC[C@@H]3CO)cc2)cc1 | 44% | Activity [3]: inactive
29 | CC(C)(C)C(c1ccc(NC(=O)CN2CCCC2)cc1)c1ccc(NC(=O)CN2CCCC2)cc1 | – | IC50 [2]: 790 nM; Activity [5]: inactive
30 | Nc1ccccc1Sc1nc(N)c(N)c(-c2ccco2)c1N | inactive | –
31 | O=C(CN1CCCC1)Nc1ccc(NC(=O)CN2CCCC2)cc1 | 88% | –
32 | CCN(CC)CC(=O)Nc1ccc(Cc2ccc(NC(=O)CN(CC)CC)cc2)cc1 | 23% | Activity [3]: inactive
33 | COC(=O)[C@@H]1CCCN1CC(=O)Nc1ccc(Cc2ccc(NC(=O)CN3CCC[C@H]3C(=O)OC)cc2)cc1 | 61% | –
34 | O=C(CN1CCCC1)Nc1ccc(Cc2cccc(NC(=O)CN3CCCC3)c2)cc1 | 19% | Activity [3]: inactive
35 | O=C(Cn1ccnc1)Nc1ccc(Cc2ccc(NC(=O)Cn3ccnc3)cc2)cc1 | 167% | –
36 | O=C(CN1CCC[C@@H]1CO)Nc1ccc(Cc2ccc(NC(=O)CN3CCC[C@@H]3CO)cc2)cc1 | 75% | –
37 | Nc1ccc(Cc2ccc(N)cc2)cc1 | 86% | –
38 | O=C(CN1CCCC1)Nc1ccc(CCc2ccc(NC(=O)CN3CCCC3)cc2)cc1 | 40% | –
39 | O=C(CC1CCCC1)Nc1ccc(Cc2ccc(NC(=O)CC3CCCC3)cc2)cc1 | 86% | –
40 | CN(C)CC(=O)Nc1ccc(Cc2ccc(NC(=O)CN(C)C)cc2)cc1 | 58% | –
41 | O=C(CN1CC[C@H](F)C1)Nc1ccc(Cc2ccc(NC(=O)CN3CC[C@H](F)C3)cc2)cc1 | 112% | –
42 | CC(C)N(CC(=O)Nc1ccc(Cc2ccc(NC(=O)CN(C(C)C)C(C)C)cc2)cc1)C(C)C | 20% | –
43 | Nc1c(/N=N/c2ccc(-c3ccc(/N=N/c4cc(S(=O)(=O)O)c5ccccc5c4N)cc3)cc2)cc(S(=O)(=O)O)c2ccccc12 [CONGO RED] | – | IC50 [2]: 5500 nM
44 | O=C(Cn1cccn1)Nc1ccc(Cc2ccc(NC(=O)Cn3cccn3)cc2)cc1 | 106% | –
45 | O=C(CNC1CCCC1)Nc1ccc(Cc2ccc(NC(=O)CNC3CCCC3)cc2)cc1 | 26% | –
46 | COc1cc(-c2ccc(NC(=O)CN3CCCC3)c(OC)c2)ccc1NC(=O)CN1CCCC1 | 42% | –
47 | O=C(CN1CCCC1)Nc1cccc2c(NC(=O)CN3CCCC3)cccc12 | 110% | –
48 | O=C(CN1CC[C@H](O)C1)Nc1ccc(Cc2ccc(NC(=O)CN3CC[C@H](O)C3)cc2)cc1 | 90% | –

Row | Structure (SMILES) | Activity [1] | also measured
49 | O=C(CN1CC[C@@H](F)C1)Nc1ccc(Cc2ccc(NC(=O)CN3CC[C@@H](F)C3)cc2)cc1 | 93% | –
50 | O=C(CN1CCCC1)Nc1ccc2c(c1)Cc1cc(NC(=O)CN3CCCC3)ccc1-2 | 45% | –
51 | Nc1ccc(Cc2ccc(NC(=O)CN3CCCC3)cc2)cc1 | 75% | –
52 | CCCCNCC(=O)Nc1ccc(Cc2ccc(NC(=O)CNCCCC)cc2)cc1 | 24% | –
53 | O=C(CN1CCCC1)Nc1ccc(Sc2ccc(NC(=O)CN3CCCC3)cc2)cc1 | 22% | Activity [3]: inactive
54 | O=C(CN1CCCC1)Nc1ccc(Cc2ccc(NC(=O)CN3CC[C@@H](O)C3)cc2)cc1 | 43% | –
55 | O=C(CN1CCCC1)Nc1ccc(C(c2ccc(NC(=O)CN3CCCC3)cc2)C2CCCCCC2)cc1 | – | IC50 [2]: 510 nM; Activity [6]: Non-toxic; Activity [5]: inactive
56 | COC(=O)[C@H]1CCCN1CC(=O)Nc1ccc(Cc2ccc(NC(=O)CN3CCC[C@@H]3C(=O)OC)cc2)cc1 | 112% | –
57 | O=C(CN1CCCC1)Nc1ccc(Cc2ccc(NC(=O)CN3CCC[C@H]3CO)cc2)cc1 | 47% | Activity [3]: inactive
58 | O=C(CN1CCOCC1)Nc1ccc(Cc2ccc(NC(=O)CN3CCOCC3)cc2)cc1 | 93% | –
59 | CCN(CC)CCCC(C)Nc1c2ccc(Cl)cc2nc2ccc(OC)cc12 (configuration not stated) [QUINACRINE] | – | IC50 [2]: 1100 nM
60 | COc1ccccc1C(c1ccc(NC(=O)CN2CCCC2)cc1)c1ccc(NC(=O)CN2CCCC2)cc1 | – | IC50 [2]: 580 nM
61 | O=C(Nc1ccc(Cc2ccc(NC(=O)[C@@H]3CCCN3)cc2)cc1)[C@@H]1CCCN1 | 25% | –
62 | CN(C)[C@@H]1CCN(CC(=O)Nc2ccc(Cc3ccc(NC(=O)CN4CC[C@@H](N(C)C)C4)cc3)cc2)C1 | 31% | Activity [3]: inactive
63 | O=C(CN1CCCC1)Nc1ccccc1NC(=O)CN1CCCC1 | 82% | –
64 | O=C(CN1CCC[C@H]1C(F)(F)F)Nc1ccc(Cc2ccc(NC(=O)CN3CCC[C@H]3C(F)(F)F)cc2)cc1 | 85% | –
65 | O=C(CN1CCCC1)Nc1ccc(C(=O)c2ccc(NC(=O)CN3CCCC3)cc2)cc1 | 24% | Activity [3]: inactive
66 | CC(C)(c1ccc(NC(=O)CN2CCCC2)cc1)c1cccc(C(C)(C)c2ccc(NC(=O)CN3CCCC3)cc2)c1 | – | IC50 [2]: 830 nM
67 | NCC(=O)Nc1ccc(Cc2ccc(NC(=O)CN)cc2)cc1 | 102% | –
68 | O=C(CN1CCCC1)Nc1ccc(C(c2ccc(F)cc2)(c2ccc(NC(=O)CN3CCCC3)cc2)C(F)(F)F)cc1 | – | IC50 [2]: 510 nM; Activity [6]: Non-toxic; Activity [5]: inactive; RU [4]: 32
69 | O=C(CN1CCCC1)Nc1ccc(Cc2ccc(NC(=O)CN3CC[C@H](O)C3)cc2)cc1 | 47% | –
70 | Cc1cc(Cc2cc(C)c(NC(=O)CN3CCCC3)c(C)c2)cc(C)c1NC(=O)CN1CCCC1 | 22% | Activity [3]: inactive
